Series [1] in a line: Drug metabolism in Sprague-Dawley rat serum assessed as CYP450-mediated oxidation at 50 mg/kg administered via oral gavage after 6 hrs by LC/MS/MS analysis. In kind it is ADME, organism-based. The note with it: in vivo.
Series [2] deals with Staphylococcus aureus. Nature of the series: Antibacterial activity against methicillin-resistant Staphylococcus aureus 2658 RCMB after 18 to 20 hrs by broth microdilution method. In kind it is functional. For orientation: In broth dilution the organism is exposed to a series of concentrations in liquid medium.
Series [3] is described as follows: Drug metabolism in Sprague-Dawley rat serum assessed as […] at 50 mg/kg administered via oral gavage after 6 hrs by LC/MS/MS analysis. In kind it is ADME, organism-based. The note with it: in vivo.
Series [4] in a line: Intrinsic clearance in human liver microsomes after 10 to 60 mins in presence of NADPH by LC/MS/MS analysis. In kind it is ADME, microsome. Particulars: read-out: CLH. For orientation: Liver microsomes are vesicles of endoplasmic reticulum, rich in cytochrome P450 enzymes.
The test system of series [5] is Staphylococcus aureus. Nature of the series: Antibacterial activity against methicillin-resistant Staphylococcus aureus USA300 infected in Balb/c mouse assessed as reduction in bacterial load in wound at 2% administered topically bid for 3 days starting 48 hrs post infection relative to control. In kind it is functional.
A short description of series [6]: Drug metabolism in Sprague-Dawley rat urine assessed as CYP450-mediated oxidation at 50 mg/kg administered via oral gavage after 24 hrs by LC/MS/MS analysis. In kind it is ADME, organism-based. Particulars: in vivo.
A short description of series [7]: Half life in human liver microsomes after 10 to 60 mins in absence of NADPH by LC/MS/MS analysis. In kind it is ADME, microsome.
Series [8] in a line: Drug metabolism in Sprague-Dawley rat urine assessed as […] at 50 mg/kg administered via oral gavage after 24 hrs by LC/MS/MS analysis. In kind it is ADME, organism-based. The note with it: in vivo.
A short description of series [9]: Half life in human liver microsomes after 10 to 60 mins in presence of NADPH by LC/MS/MS analysis. In kind it is ADME, microsome.
Series [10] deals with Staphylococcus aureus. Nature of the series: Bactericidal activity against vancomycin-resistant Staphylococcus aureus VRSA10 clinical isolate after 24 hrs. In kind it is functional. The note with it: VRSA10, 24 h.
The subject of series [11] is Staphylococcus aureus. The experiment in a line: Antibacterial activity against vancomycin-resistant Staphylococcus aureus VRSA4 clinical isolate after 18 to 20 hrs by broth microdilution method. In kind it is functional.
Series [12] relates to Staphylococcus aureus. Nature of the series: Potentiation of vancomycin-mediated antibacterial activity against vancomycin-resistant Staphylococcus aureus VRSA4 clinical isolate assessed as reduction in vancomycin MIC at 0.5 times MIC preincubated for 30 mins followed by vancomycin addition measured after 20 to 22 hrs relative to control. In kind it is functional.
The subject of series [13] is Staphylococcus aureus. The experiment in a line: Antibacterial activity against methicillin/ciprofloxacin/gentamicin/clindamycin-resistant Staphylococcus aureus USA200 NRS383 clinical isolate after 18 to 20 hrs by broth microdilution method. In kind it is functional.
Series [14] relates to Staphylococcus aureus. Nature of the series: Antibacterial activity against methicillin-resistant Staphylococcus aureus USA400 NRS123 clinical isolate infected in mouse J774 cells assessed as reduction of bacterial load at 16 ug/ml after 8 hrs. In kind it is functional, cell-based.
Series [15] relates to Staphylococcus aureus. Nature of the series: Bactericidal activity against methicillin-resistant Staphylococcus aureus USA400 NRS123 clinical isolate after 24 hrs. In kind it is functional.
Series [16] relates to Staphylococcus aureus. Nature of the series: Ratio of MBC to MIC for methicillin/ciprofloxacin/gentamicin/clindamycin-resistant Staphylococcus aureus USA200 NRS383 clinical isolate. In kind it is functional.
For series [17], the system named is Staphylococcus aureus. The experiment in a line: Antibacterial activity against methicillin/erythromycin/tetracycline-resistant Staphylococcus aureus USA300 NRS384 clinical isolate after 18 to 20 hrs by broth microdilution method. In kind it is functional.
Series [18] relates to Staphylococcus aureus. The experiment in a line: Bactericidal activity against methicillin/ciprofloxacin/gentamicin/clindamycin-resistant Staphylococcus aureus USA200 NRS383 clinical isolate after 24 hrs. In kind it is functional.
For series [19], the system named is Staphylococcus aureus. Nature of the series: Bactericidal activity against mupirocin/rifampicin-resistant Staphylococcus aureus RN4220 NRS107 clinical isolate after 24 hrs. In kind it is functional. The note with it: RN4220 NRS107, 24 h.
Series [20] in a line: Intrinsic clearance in human liver microsomes after 10 to 60 mins in absence of NADPH by LC/MS/MS analysis. In kind it is ADME, microsome. Particulars: read-out: CLH.
Series [21] has as its system Staphylococcus aureus. The experiment in a line: Bactericidal activity against methicillin/ciprofloxacin/clindamycin-resistant Staphylococcus aureus USA100 NRS382 clinical isolate after 24 hrs. In kind it is functional.
The subject of another series is J774. Nature of the series: Cytotoxicity against mouse J774 cells assessed as decrease in cell viability up to 16 ug/ml after 2 hrs by MTS assay. In kind it is cell-based. The note with it: j774, 2 h. (Formazan colour is commonly taken as a measure of viable cells.)
Series [22] relates to Staphylococcus aureus. The experiment in a line: Bactericidal activity against methicillin-resistant Staphylococcus aureus USA400 NRS123 clinical isolate assessed as time required to reduce 3 log10CFU of bacterial load at 4 times MIC by time kill assay. In kind it is functional.
Series [23] relates to Staphylococcus aureus. Nature of the series: Bactericidal activity against vancomycin-resistant Staphylococcus aureus VRSA4 clinical isolate after 24 hrs. Particulars: VRSA4, 24 h. In kind it is functional.
Series [24] deals with Staphylococcus aureus. The experiment in a line: Ratio of MBC to MIC for methicillin-resistant Staphylococcus aureus USA400 NRS123 clinical isolate. In kind it is functional.
In series [25] the test system is HaCaT. The experiment in a line: Cytotoxicity against human HaCaT cells assessed as decrease in cell viability up to 32 ug/ml after 2 hrs by MTS assay. In kind it is cell-based.
Series [26] relates to Staphylococcus aureus. The experiment in a line: Potency index, ratio of vancomycin MIC to test compound MIC for methicillin-resistant Staphylococcus aureus 2658 RCMB. In kind it is functional.
The test system of series [27] is Staphylococcus aureus. Nature of the series: Antibacterial activity against vancomycin-resistant Staphylococcus aureus VRSA10 clinical isolate after 18 to 20 hrs by broth microdilution method. In kind it is functional.
Series [28] has as its system Staphylococcus aureus. Nature of the series: Antibacterial activity against methicillin-resistant Staphylococcus aureus USA400 NRS123 clinical isolate after 18 to 20 hrs by broth microdilution method. In kind it is functional.
Series [29] relates to Staphylococcus aureus. Nature of the series: Ratio of MBC to MIC for methicillin/erythromycin/tetracycline-resistant Staphylococcus aureus USA300 NRS384 clinical isolate. In kind it is functional.
For series [30], the system named is Staphylococcus aureus. Nature of the series: Antibacterial activity against methicillin-resistant Staphylococcus aureus USA400 NRS123 clinical isolate infected in mouse J774 cells assessed as reduction of bacterial load at 16 ug/ml after 24 hrs relative to control. In kind it is functional. Particulars: USA400 NRS123, J774, 24 h.
For series [31], the system named is Staphylococcus aureus. The experiment in a line: Antibacterial activity against methicillin-resistant Staphylococcus aureus USA400 NRS123 clinical isolate infected in mouse J774 cells assessed as reduction of bacterial load at 16 ug/ml after 12 hrs relative to control. In kind it is functional. The note with it: USA400 NRS123, J774, 12 h.
Series [32] concerns Staphylococcus aureus. The experiment in a line: Antibacterial activity against methicillin/ciprofloxacin/clindamycin-resistant Staphylococcus aureus USA100 NRS382 clinical isolate after 18 to 20 hrs by broth microdilution method. In kind it is functional.
In series [33] the test system is Staphylococcus aureus. The experiment in a line: Potentiation of vancomycin-mediated antibacterial activity against vancomycin-resistant Staphylococcus aureus VRSA10 clinical isolate assessed as reduction in vancomycin MIC at 0.5 times MIC preincubated for 30 mins followed by vancomycin addition measured after 20 to 22 hrs relative to control. In kind it is functional.

The subject of series [34] is Staphylococcus aureus. Nature of the series: Antibacterial activity against mupirocin/rifampicin-resistant Staphylococcus aureus RN4220 NRS107 clinical isolate after 18 to 20 hrs by broth microdilution method. In kind it is functional.
Series [35] deals with HaCaT. The experiment in a line: Cytotoxicity against human HaCaT cells assessed as decrease in cell viability at 64 ug/ml after 2 hrs by MTS assay. In kind it is cell-based.
In series [36] the test system is Staphylococcus aureus. The experiment in a line: Bactericidal activity against methicillin/erythromycin/tetracycline-resistant Staphylococcus aureus USA300 NRS384 clinical isolate after 24 hrs. In kind it is functional.

We go through two compounds from ChEMBL document CHEMBL4002577, “Phenylthiazole antibiotics: A metabolism-guided approach to overcome short duration of action” (Eur J Med Chem, 2017).

The structures appear in SMILES notation. Values after ≈ are worked out from the molar mass of the structure shown. Active and inactive are the calls of the source. The calls are words filed in the database; no cut-off is given here. A value given as a limit tells only on which side of the number the result lay.

In general, MIC refers to the least concentration at which growth counts as inhibited. Low values mean greater potency, high ones weaker potency. For orientation: half-life means the time in which the quantity being followed falls by half. Turning to `CCCCc1ccc(-c2nc(C)c(/C(C)=N/NC(=N)N)s2)cc1`, the Drug metabolism result in series [1], in series [3], in series [6] and in [8] was “Metabolite_Detected” in each case. The compound further returned an MIC against Staphylococcus aureus [2] of 3.75 µg/mL (≈ 11.4 µM). For the same compound, the microsomal CLint in series [4] stood at 80.3 µL/min/mg. In addition, the Activity in the series with Staphylococcus aureus [5] is listed as 2.36 deltalog10CFU. Moreover, the half-life in series [7] was more than 1 h; in series [9], 0.48 h.
One may read the MBC as the lowest tested concentration that kills the bacteria rather than only halting them. Low readings indicate greater bactericidal potency, high ones weaker bactericidal potency. As a reminder, the inhibition is how much of the control response was suppressed. Regarding `C/C(=N\NC(=N)N)c1sc(-c2ccc(OC3CCCCCC3)cc2)nc1C`, the minimal bactericidal concentration (MBC) in the series with Staphylococcus aureus [10] is 4 µg/mL (≈ 10.4 µM); in the series with Staphylococcus aureus [15] (USA400 NRS123, 24 h), 16 µg/mL (≈ 41.5 µM); against Staphylococcus aureus [18] (USA200 NRS383, 24 h), 8 µg/mL (≈ 20.8 µM); against Staphylococcus aureus [19] it was 8 µg/mL (≈ 20.8 µM); in the series with Staphylococcus aureus [21] (USA100 NRS382, 24 h), 4 µg/mL (≈ 10.4 µM); against Staphylococcus aureus [23] it was 4 µg/mL (≈ 10.4 µM). For the same compound, in the series on Staphylococcus aureus [36] (USA300 NRS384, 24 h), the MBC is 16 µg/mL (≈ 41.5 µM). The MIC against Staphylococcus aureus [11] came out at 4 µg/mL (≈ 10.4 µM); against Staphylococcus aureus [13] it was 2 µg/mL (≈ 5.19 µM); against Staphylococcus aureus [2], 0.98 µg/mL (≈ 2.54 µM); with Staphylococcus aureus [17], 4 µg/mL (≈ 10.4 µM); in the series with Staphylococcus aureus [27], 4 µg/mL (≈ 10.4 µM); with Staphylococcus aureus [28], 4 µg/mL (≈ 10.4 µM). Also, the minimum inhibitory concentration (MIC) with Staphylococcus aureus [32] was 2 µg/mL (≈ 5.19 µM); in the series on Staphylococcus aureus [34], 4 µg/mL (≈ 10.4 µM). Besides, the figures for the “fold change (FC)” value in the series on Staphylococcus aureus [12] and with Staphylococcus aureus [33] were 16 and 256, respectively. Besides, the outcome in the series on Staphylococcus aureus [14] was inactive. For the same compound, the Activity result with Staphylococcus aureus [15] is “Dose-dependent effect”; with Staphylococcus aureus [18] it was “Dose-dependent effect”; with Staphylococcus aureus [21], “Dose-dependent effect”; in the series with J774, “Non-Toxic”; in the series with HaCaT [25], “Non-Toxic”; in the series on HaCaT [35] it was “Toxic”. In the series on Staphylococcus aureus [36], the Activity result was “Dose-dependent effect”. The Ratio in the series on Staphylococcus aureus [16] was more than 3; in the series with Staphylococcus aureus [24], more than 3; with Staphylococcus aureus [26], 1; in the series with Staphylococcus aureus [29], more than 3. For the same compound, the microsomal CLint in series [20] and in series [4] was less than 9.6 µL/min/mg each time. For the same compound, in the series with Staphylococcus aureus [22], the Time stood at 48 h. For the same compound, the half-life in series [7] and in [9] was more than 4 h each time. The inhibition at 16 µg/mL was 70% in the series with Staphylococcus aureus [30] and 48% in the series with Staphylococcus aureus [31].
